Test systems include COLO 205; HCT-116; HCT-15; IGROV-1; M14; MCF7; MDA-MB-435; NCI-H23; NCI/ADR-RES; OVCAR-5; SF-268; SK-MEL-28; SK-OV-3; U-251; UO-31; K562; Malme-3M; NCI-H522; OVCAR-4; RXF 393.
Test in all cases: NCI-60 cell line screen, 48 h

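The compound was tested at five concentrations on cells cultured in 96-well plates, with a 48-hour exposure period. GI50 is the concentration that inhibits growth by half.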 Calls of active or inactive are those of the source. No stated cut-off is given here; in the data, active = GI50 up to about 1.1 µM and inactive = higher.

As for `ClCCN1CCOC1=C1C=CC=C1`, the GI50 with COLO 205 is > 100 µM (inactive); with HCT-116, > 100 µM (inactive); in the experiment on HCT-15, > 100 µM; in the experiment on IGROV-1 it was 14 µM (inactive); with M14 it was > 100 µM (inactive); with MCF7, > 100 µM (inactive). The GI50 in the experiment on MDA-MB-435, in the experiment with NCI-H23, with NCI/ADR-RES, in the experiment on OVCAR-5, in the experiment with SF-268 and with SK-MEL-28 was > 100 µM (inactive) throughout. Moreover, the GI50 with SK-OV-3, in the experiment with U-251 and in the experiment with UO-31 was > 100 µM (inactive) throughout.

With `COc1ccc2c(c1)c(=O)c1c(NCCN(C)C)ccc3c(=O)n(CCN(C)C)c(=O)n2c31`, the GI50 with COLO 205 is 0.0293 µM (active); with HCT-116, < 0.014 µM (active); in the experiment on HCT-15 it was < 0.0223 µM; with IGROV-1 it was < 0.0232 µM (active); with K562, < 0.01 µM (active); in the experiment on M14, 0.159 µM (active). Further, the GI50 was 0.0368 µM (active) in the experiment on MCF7; 0.117 µM (active) in the experiment with MDA-MB-435; 0.29 µM (active) in the experiment on Malme-3M; 0.11 µM (active) with NCI-H23; 0.0762 µM (active) with NCI-H522; 0.109 µM (active) in the experiment on NCI/ADR-RES. The GI50 in the experiment on OVCAR-4 is 0.101 µM (active); in the experiment with OVCAR-5 it was 0.254 µM (active); in the experiment on SF-268, 0.114 µM (active); in the experiment on SK-MEL-28, 0.383 µM (active); in the experiment on SK-OV-3, 0.55 µM (active); in the experiment with U-251, 0.0783 µM (active). For the same compound, in the experiment with UO-31, the GI50 is 0.163 µM (active).

On to `Cc1ccc([S+]([O-])c2cccs2)cc1` (centres undefined), for which the GI50 in the experiment on COLO 205 is > 100 µM (inactive); in the experiment with HCT-116, > 100 µM (inactive); in the experiment on HCT-15, > 100 µM; with K562 it was > 100 µM (inactive); in the experiment with M14, > 100 µM (inactive); with MCF7, > 100 µM (inactive). Besides, the GI50 with MDA-MB-435, with Malme-3M, in the experiment with NCI-H23, with NCI/ADR-RES, in the experiment with OVCAR-5 and in the experiment on RXF 393 was > 100 µM (inactive) each time. Also, the GI50 in the experiment with SF-268, in the experiment on SK-MEL-28, with U-251 and in the experiment on UO-31 was > 100 µM (inactive) each time.

Consider `Nc1nc2ncc(SCc3ccc(C(=O)NC(CCC(=O)O)C(=O)O)cc3)cc2c(=O)[nH]1` (centres undefined), for which the GI50 in the experiment with COLO 205 is > 100 µM (inactive); with HCT-116 it was > 100 µM (inactive); in the experiment on HCT-15, > 100 µM; in the experiment on IGROV-1 it was > 100 µM (inactive); in the experiment with K562, > 100 µM (inactive); in the experiment with M14 it was > 100 µM (inactive). Moreover, the GI50 in the experiment on MCF7, in the experiment on MDA-MB-435, in the experiment on Malme-3M, with NCI-H23, in the experiment on NCI-H522 and in the experiment on NCI/ADR-RES was > 100 µM (inactive) in each case. Further, the GI50 in the experiment on OVCAR-4, in the experiment with OVCAR-5, with SF-268, in the experiment on SK-MEL-28, in the experiment with SK-OV-3 and in the experiment with U-251 was > 100 µM (inactive) each time. For the same compound, in the experiment on UO-31, the GI50 was > 100 µM (inactive).

Take `O=C1CN(c2cccc(C(F)(F)F)c2)C(=O)CN1CCN1CC(=O)N(c2cccc(C(F)(F)F)c2)CC1=O`: the GI50 with COLO 205 was > 100 µM (inactive); in the experiment with HCT-116, > 100 µM (inactive); in the experiment with HCT-15, > 100 µM; in the experiment with IGROV-1, > 100 µM (inactive); in the experiment on K562, > 100 µM (inactive); in the experiment with M14, > 100 µM (inactive). Besides, the GI50 in the experiment on MCF7, in the experiment on MDA-MB-435, with NCI-H522, with NCI/ADR-RES, with OVCAR-4 and in the experiment on OVCAR-5 was > 100 µM (inactive) throughout. Also, the GI50 in the experiment on SF-268, in the experiment on SK-MEL-28, in the experiment with SK-OV-3, in the experiment with U-251 and with UO-31 was > 100 µM (inactive) in each case.

On to `O=C(OCc1ccccc1)N1CCN(C(=O)OCc2ccccc2)CCN(C(=O)OCc2ccccc2)CCN(C(=O)OCc2ccccc2)CCN(C(=O)OCc2ccccc2)CC1`, for which the GI50 was 31.1 µM (inactive) in the experiment on COLO 205; > 100 µM (inactive) with HCT-116; 46.8 µM with HCT-15; 35.3 µM (inactive) with M14; > 100 µM (inactive) with MCF7; > 100 µM (inactive) with MDA-MB-435. Further, the GI50 is 24.4 µM (inactive) in the experiment on Malme-3M; 68.2 µM (inactive) with NCI-H522; 79.4 µM (inactive) in the experiment with NCI/ADR-RES; 57.4 µM (inactive) in the experiment on OVCAR-4; > 100 µM (inactive) with OVCAR-5; > 100 µM (inactive) with SK-MEL-28. The GI50 with SK-OV-3 is > 100 µM (inactive); in the experiment with U-251, 76.7 µM (inactive); with UO-31, 22.8 µM (inactive).

For the compound `CC1(C)C2CCC1(C)C(NC(=O)COCCOCC(N)=O)C2` (centres undefined), the GI50 is 94.8 µM (inactive) with COLO 205; > 100 µM (inactive) in the experiment with HCT-116; > 100 µM (inactive) in the experiment on IGROV-1; 32.1 µM (inactive) with K562; > 100 µM (inactive) in the experiment on M14; > 100 µM (inactive) in the experiment on MCF7. Moreover, the GI50 in the experiment with MDA-MB-435, with Malme-3M, in the experiment on NCI-H23, in the experiment on NCI-H522, with OVCAR-4 and in the experiment on OVCAR-5 was > 100 µM (inactive) each time. Besides, the GI50 in the experiment with RXF 393 is 63.7 µM (inactive); in the experiment with SF-268 it was > 100 µM (inactive); in the experiment with SK-MEL-28, > 100 µM (inactive); in the experiment with SK-OV-3, > 100 µM (inactive); in the experiment with U-251, > 100 µM (inactive); in the experiment on UO-31, > 100 µM (inactive).

Regarding `Cc1ccc(S(=O)(=O)N(CC(O)COc2ccccc2)c2c(F)c(F)cc(F)c2F)cc1` (centres undefined), the GI50 is 15.7 µM (inactive) in the experiment on COLO 205; 37 µM (inactive) in the experiment on HCT-116; 20.9 µM in the experiment with HCT-15; 23.7 µM (inactive) in the experiment with M14; 16.4 µM (inactive) in the experiment with MCF7; 16.9 µM (inactive) in the experiment with MDA-MB-435. In addition, the GI50 was 23.1 µM (inactive) with Malme-3M; 18.8 µM (inactive) in the experiment with NCI-H23; 18.1 µM (inactive) with NCI/ADR-RES; 18.7 µM (inactive) in the experiment with OVCAR-4; 29 µM (inactive) in the experiment with OVCAR-5; 18.7 µM (inactive) in the experiment with SF-268. Also, the GI50 in the experiment on SK-MEL-28 is 19.5 µM (inactive); in the experiment on SK-OV-3, 19.4 µM (inactive); with U-251 it was 21 µM (inactive); in the experiment with UO-31 it was 20.4 µM (inactive).

Take `O=S(=O)(O)c1ccc(/N=N\c2c(O)ccc3cc(Br)ccc23)cc1`: the GI50 was > 100 µM (inactive) in the experiment on COLO 205; > 100 µM (inactive) in the experiment with HCT-116; > 100 µM with HCT-15; > 100 µM (inactive) in the experiment with IGROV-1; > 10 µM (inactive) with K562; > 100 µM (inactive) with M14. For the same compound, the GI50 in the experiment on MDA-MB-435, with Malme-3M, in the experiment with NCI-H23, with NCI-H522, with NCI/ADR-RES and in the experiment on OVCAR-4 was > 100 µM (inactive) in each case. The GI50 in the experiment on OVCAR-5, in the experiment on RXF 393, in the experiment on SF-268, in the experiment on SK-MEL-28, in the experiment on SK-OV-3 and in the experiment with U-251 was > 100 µM (inactive) in each case. Besides, the GI50 with UO-31 was > 100 µM (inactive).

As for `CC(=O)O[C@H]1C(=O)[C@@]2(C)C(C(OC(=O)c3ccccc3)[C@]3(O)CC(OC(=O)C(O)C(NC(=O)c4ccccc4)c4cccc(Cl)c4)C(C)=C1C3(C)C)[C@]1(OC(C)=O)CO[C@@H]1C[C@@H]2O` (some centres undefined), the GI50 was 3.1 µM (inactive) in the experiment on COLO 205; 2.88 µM (inactive) in the experiment on HCT-116; > 10 µM in the experiment on HCT-15; 3.88 µM (inactive) in the experiment with IGROV-1; 4.94 µM (inactive) with K562; > 10 µM (inactive) in the experiment on M14. Further, the GI50 with MCF7 is 3.06 µM (inactive); with MDA-MB-435, 1.55 µM (inactive); with Malme-3M it was > 10 µM (inactive); with NCI-H23, 4.39 µM (inactive); with NCI-H522 it was 3.18 µM (inactive); with NCI/ADR-RES, > 10 µM (inactive). Besides, the GI50 was > 10 µM (inactive) with OVCAR-4; 4.15 µM (inactive) with OVCAR-5; 7.26 µM (inactive) in the experiment with SF-268; > 10 µM (inactive) in the experiment with SK-OV-3; 4.95 µM (inactive) in the experiment on U-251.

For the compound `N#Cc1ccc(/C=[N+](/C=c2ccc(=C=[N-])cc2)N(CCO)C2=NCCN2)cc1`, the GI50 in the experiment on COLO 205 was > 100 µM (inactive); with HCT-116, > 100 µM (inactive); with HCT-15 it was > 100 µM; in the experiment on IGROV-1, > 100 µM (inactive); in the experiment on K562 it was > 100 µM (inactive); in the experiment with M14, > 100 µM (inactive). Also, the GI50 in the experiment with MCF7 is > 100 µM (inactive); in the experiment with MDA-MB-435, > 100 µM (inactive); with Malme-3M it was > 100 µM (inactive); in the experiment on NCI-H23, > 100 µM (inactive); in the experiment with NCI-H522, 71 µM (inactive); with NCI/ADR-RES, > 100 µM (inactive). Moreover, the GI50 with OVCAR-4, in the experiment on OVCAR-5, in the experiment with SF-268, with SK-OV-3, in the experiment on U-251 and with UO-31 was > 100 µM (inactive) in each case.

The values are drawn from ChEMBL document CHEMBL1201862, “PubChem BioAssay data set” (2004).
